According to patent US10028992B2, “Methods of treating muscular dystrophy” (BOARD OF REGENTS OF THE NEVADA SYSTEM OF HIGHER EDUCATION …, priority 2012, dated 2018):

System: α7 integrin promoter
Experiment: muscle cell-based assay: α7βgal+/− myoblasts/myotubes, LacZ reporter, β-galactosidase cleavage of FDG
Set-up: species or system mouse; Results in α7+/− β-galactosidase assay: scale not given here
Conditions: for Results in a α7+/− β-galactosidase assay, Myotubes, 0.5 uM: compound at 0.5 uM; for Results in a α7+/− β-galactosidase assay, Myotubes, 1 uM: compound at 1 uM; for Results in a α7+/− β-galactosidase assay, Myotubes, 5 uM: compound at 5 uM; for Results in a α7+/− β-galactosidase assay, Myotubes, 10 uM: compound at 10 uM; for Results in a α7+/− β-galactosidase assay, Myotubes, 20 uM: compound at 20 uM; for Results in a α7+/− β-galactosidase assay, Myotubes, 40 uM: compound at 40 uM; for AC50: Mus musculus, log of AC50, given with negative sign, unit of AC50 not given, read-out: Fit Log AC50 (converted); for AC50 / Fit HillSlope / Fit Zero Activity [%] / Fit Curve Class: Table 12; for Fit HillSlope: curve fit; for Fit Zero Activity [%]: fitted activity at zero concentration; for Fit Curve Class: key not given; for Score: Table 12 Compound data, concentration-response curve fit; for Result in α7+/− β-galactosidase assay / Results in α7+/− β-galactosidase assay: Myoblasts
Procedure: An α7 integrin null mouse was produced in which exon 1 of the gene encoding the α7 integrin was replaced by the LacZ reporter. In these mice, all the transcriptional regulatory elements of the α7 integrin promoter were retained, allowing β-galactosidase to report expression of 7 integrin. A primary myoblast cell line (designated α7βgal^+/−) isolated from 10 day old α7^+/− pups were analyzed for the ability of β-galactosidase to report α7 integrin expression. α7βgal^+/− myoblasts were differentiated and subjected to X-gal staining and western analysis (FIGS. 1A and 1B).
The activity of the α7 integrin promoter was measured by β-galactosidase cleavage of the non-fluorescent compound fluorescein di-β-D-galactopyranoside (FDG) to fluorescein. This assay was used to screen compound libraries to identify molecules that up-regulate α7 integrin expression in muscle.
Also evaluated was the effect of various isoforms of laminin and the ligand for α7β1 integrin on integrin expression. Positive hits were subjected to dose-response analysis, western analysis and a myostatin counterscreen (a negative regulator of muscle growth).

`O=C(CCc1ccccc1)c1nnc(-c2ccccc2)o1` [drawing 367] was tested, and the “Results in a α7+/− β-galactosidase assay, Myotubes, 0.5 uM” value (shortened to “Results … 0.5 uM”) was 0.117, the “Results in a α7+/− β-galactosidase assay, Myotubes, 1 uM” value (“Results … 1 uM” for short) was 0.1296 and the “Results in a α7+/− β-galactosidase assay, Myotubes, 5 uM” value (from here on “Results … Myotubes, 5 uM”) was −0.09921. For the same molecule, the “Results in a α7+/− β-galactosidase assay, Myotubes, 10 uM” value (from here on “Results … 10 uM”) was −0.1418, the “Results in a α7+/− β-galactosidase assay, Myotubes, 20 uM” value (shortened to “Results … 20 uM”) was −0.1125 and the “Results in a α7+/− β-galactosidase assay, Myotubes, 40 uM” value (“Results … 40 uM” below) was 0.05525.

With `CCCN(C(=O)c1ccc(S(=O)(=O)N2CCCC2)cc1)C1CCS(=O)(=O)C1` (stereo not drawn) [Compound 89] the AC50 was 5.01 µM, the “Fit HillSlope” value was 1.6924 and the “Fit Zero Activity [%]” value was −10.8957%. The “Fit Curve Class” value was 2.2 and the Score was 43.

`CCN(CC)CCNC(=O)c1c(C)[nH]c(CC2C(=O)Nc3ccc(F)cc32)c1C` (stereo not drawn) [drawing 723] was tested, and the “Result in α7+/− β-galactosidase assay” value (0.5 uM) was 0.02287, the “Result in α7+/− β-galactosidase assay” value (1 uM) was 0.01135 and the “Result in α7+/− β-galactosidase assay” value (5 uM) was −0.471. The “Result in α7+/− β-galactosidase assay” value (10 uM) was −0.913, the “Result in α7+/− β-galactosidase assay” value (20 uM) was −0.9852 and the “Result in α7+/− β-galactosidase assay” value (40 uM) was −0.9864.

In the case of `Nc1cccc(/C=C/C(=O)O)c1` [drawing 468], the “Results … 0.5 uM” value is reported as 0.04663, the “Results … 1 uM” value is reported as −0.01629 and the “Results … Myotubes, 5 uM” value is reported as −0.2823. The “Results … 10 uM” value was −0.1292, the “Results … 20 uM” value was −0.1085 and the “Results … 40 uM” value was −0.2156.

With `O=C(Nc1cc(Br)ccc1O)C1CC(c2ccccc2Cl)=NO1` (stereo not drawn) [Compound 108] the AC50 was 12.6 µM, the “Fit HillSlope” value was 4.5045 and the “Fit Zero Activity [%]” value was 2.0834%. For the same molecule, the “Fit Curve Class” value was 2.1 and the Score was 43.

`CC1Cc2ccccc2N1C(=O)CSc1nnc(N)s1` (stereo not drawn) [drawing 423] was tested, and the “Results … 0.5 uM” value was −0.03474, the “Results … 1 uM” value was −0.1188 and the “Results … Myotubes, 5 uM” value was −0.01338. The “Results … 10 uM” value was 0.3723, the “Results … 20 uM” value was −0.1603 and the “Results … 40 uM” value was 0.2399.

`CCN(CC)C(=O)c1sc2nc(-c3ccc(OC)cc3)cn2c1C` [drawing 412] was tested, and the “Results … 0.5 uM” value was 0.08584, the “Results … 1 uM” value was 0.05066 and the “Results … Myotubes, 5 uM” value was 0.1198. The “Results … 10 uM” value was −0.03387, the “Results … 20 uM” value was −0.01472 and the “Results … 40 uM” value was −0.1357.

With `Cc1ccc(NS(=O)(=O)c2ccc(-c3ccc(O)nn3)o2)c(C)c1` [drawing 685] the “Results in α7+/− β-galactosidase assay” value (0.5 uM) was 0.09197, the “Results in α7+/− β-galactosidase assay” value (1 uM) was 0.1114 and the “Results in α7+/− β-galactosidase assay” value (5 uM) was −0.00204. The “Results in α7+/− β-galactosidase assay” value (10 uM) was −0.06144, the “Results in α7+/− β-galactosidase assay” value (20 uM) was 0.2389 and the “Results in α7+/− β-galactosidase assay” value (40 uM) was 0.2674.

In the case of `CC1CC(C)(C)N=C(S)N1CC(=O)N(C)Cc1ccccc1` (stereo not drawn) [drawing 593], the “Results in α7+/− β-galactosidase assay” value (0.5 uM) is reported as −0.00967, the “Results in α7+/− β-galactosidase assay” value (1 uM) is reported as 0.04937 and the “Results in α7+/− β-galactosidase assay” value (5 uM) is reported as 0.1163. The “Results in α7+/− β-galactosidase assay” value (10 uM) was 0.244, the “Results in α7+/− β-galactosidase assay” value (20 uM) was 0.03336 and the “Results in α7+/− β-galactosidase assay” value (40 uM) was 0.02068.

For `c1ccc(-c2cc(-c3nc4ccccc4[nH]3)c3ccccc3n2)cc1` [drawing 432], the “Results … 0.5 uM” value was −0.06598, the “Results … 1 uM” value was −0.05419 and the “Results … Myotubes, 5 uM” value was −0.2722. For the same molecule, the “Results … 10 uM” value was −0.06437, the “Results … 20 uM” value was −0.3184 and the “Results … 40 uM” value was −0.5085.

In the case of `COc1ccccc1CNS(=O)(=O)c1ccc(Cl)s1` [Compound 103], the AC50 is reported as 6.31 µM, the “Fit HillSlope” value is reported as 1.8265 and the “Fit Zero Activity [%]” value is reported as −23.0045%. For the same molecule, the “Fit Curve Class” value was 2.1 and the Score was 43.

In the case of `O=C1CCC(C(=O)N2CCSCC2)CN1Cc1ccc(Cl)cc1` (stereo not drawn) [drawing 489], the “Results … 0.5 uM” value is reported as 0.02632, the “Results … 1 uM” value is reported as 0.1369 and the “Results … Myotubes, 5 uM” value is reported as 0.02663. The “Results … 10 uM” value was 0.3226, the “Results … 20 uM” value was 0.2089 and the “Results … 40 uM” value was 0.5544.

In the case of `Cc1ccccc1/C=C1\C(=O)Nc2ccc(F)cc21` [drawing 664], the “Results in α7+/− β-galactosidase assay” value (0.5 uM) is reported as 0.2562, the “Results in α7+/− β-galactosidase assay” value (1 uM) is reported as 0.1979 and the “Results in α7+/− β-galactosidase assay” value (5 uM) is reported as 0.05318. The “Results in α7+/− β-galactosidase assay” value (10 uM) was 0.04838, the “Results in α7+/− β-galactosidase assay” value (20 uM) was −0.109 and the “Results in α7+/− β-galactosidase assay” value (40 uM) was −0.1352.
